Test results taken from US20260115181A1, “TRANSCRIPTION FACTOR PFAP2-O5 INHIBITOR FOR PLASMODIUM FALCIPARUM, PHARMACEUTICAL COMPOSITION, AND DRUG FOR TREATING MALARIA RESISTANT TO ARTEMISININ AND ANALOG THEREOF” (priority 2023, published 2026).

Assays:
Plasmodium falciparum = assay: In vitro growth inhibition of Plasmodium falciparum (3-day SYBR Green I cell growth assay); type: cell-based; details: wild-type Plasmodium falciparum, 72 hours, read-out: IC50 of the quantitative growth inhibitory effect on in vitro culture of Plasmodium falciparum
Experimental: 100 μL of complete culture medium was added to a 96-well plate. 200 μL of a compound stock solution with a concentration of 200 μM was added to the first well. Gradient dilution (11 concentration gradients) was performed at a 1/2 ratio according to the doubling gradient dilution. Dihydroartemisinin (DHA) was used as a positive control, complete culture medium was used as a negative control, and red blood cells without Plasmodium falciparum or compounds were used as a background control.
100 μL of wild-type Plasmodium falciparum culture (1% parasitemia, 4% hematocrit) was accurately added to each well, so that finally, the parasitemia in each well was 0.5%, and the hematocrit was 2%. The final concentration gradients of the compound were 100 μM, 50 μM, 25 μM, 12.5 μM, 6.25 μM, 3.125 μM, 1.5625 μM, 0.78125 μM, 0.390625 µM, 0.195313 μM, and 0.097656 μM. […] After the incubation was completed, a fluorescence intensity was recorded on a microplate reader with an excitation wavelength of 485 nm and an emission wavelength of 535 nm. The inhibition rate of the small molecule inhibitor on the growth of Plasmodium falciparum was calculated based on the fluorescence intensity.
[formula] • where Fltreated, Flbackground, and Flcontrol represent the fluorescence intensity values of the candidate small molecule drug group, the red blood cell control group, and the untreated control group, respectively. […]

PfAP2-O5 = assay: Transcriptome sequencing (RNA-seq) analysis of effects on PfAP2-O5 target (invasion) gene expression; type: cell-based, Plasmodium falciparum; details: wild-type strain, 1 μM
Experimental: Wild-type and pfap2-o5 conditional knockdown Plasmodium falciparum strains were treated with the hexahydroquinoline derivative represented by formula (I), respectively. After strict synchronization of the Plasmodium falciparum strains, 1 μM hexahydroquinoline derivative was added one life cycle in advance. After one life cycle, the ring (10-15 hours), trophozoite (28-32 hours), and schizont (40-44 hours) stage cultures of the wild-type and pfap2-o5 conditional knockdown Plasmodium falciparum strains treated with the hexahydroquinoline derivative were collected. Total RNA was purified using the Direct-zol RNA kit, strand-specific RNA sequencing libraries were then prepared using KAPA mRNA beads, and the RNA was fragmented. The libraries were sequenced on the Illumina HiSeq X Ten system, and the differential gene expression between the two Plasmodium falciparum strains after inhibitor treatment was analyzed.

[1] = tested on: human renal epithelial cell line 293T; assay: Cytotoxicity, CCK8 assay, 293T cells; type: cell-based; details: 72 hours
Experimental: (§1) Mammalian 293T and HepG2 cells were cultured and passaged, trypsinized, and resuspended in DMEM. The cells were counted using a hemocytometer and diluted to 10^5 cells/mL. The cell suspension was evenly added to a 96-well plate, with 100 μL per well. After the cells were subjected to attachment culture in a 37° C. incubator (5% CO2) for 24 hours, the inhibitors of the corresponding concentrations were added. Gradient dilution (11 concentration gradients) was performed at a 1/2 ratio according to the doubling gradient dilution. Complete culture medium was used as a negative control, and DMEM was used as a background control. After the culture in a 37° C. incubator (5% CO2) for 72 hours, 10 μL of CCK8 reagent was added to each well. The plate was incubated in a 37° C. incubator (5% CO2) for 1 hour. The absorbance at a 450 nm wavelength was read by a microplate reader, and a survival rate was calculated based on the absorbance.
(§2) [formula] • where Abtreated, Abbackground, and Abcontrol represent the absorbance values of the small molecule drug group, the DMEM control group, and the untreated control group, respectively. The inhibition rate of the drug was calculated based on the survival rate at different concentrations, and the growth inhibition curve was summarized as inhibition rate-drug concentration. The IC50 was calculated using SPSS 18.0 software.

[2] = tested on: human liver cancer cell line HepG2; assay: Cytotoxicity, CCK8 assay, HepG2 cells; type: cell-based; details: HepG2, 72 hours
Experimental: as §1, §2

[3] = Liver microsomal metabolism assay, mouse; type: in vitro ADME
Experimental: (§3) In the microsomal metabolism assay, the inhibitor was incubated with liver microsomes from different species; the reaction was terminated at different time points; the remaining amount of the inhibitor in the samples at each time point was determined using LC-MS/MS. The percentage of parent drug remaining was calculated, and the hepatic intrinsic clearance CLint(liver) was finally obtained. Testosterone was used as a control in this study to verify the reliability of the experimental system. The detailed procedures were as follows: • The incubation system consisted of 0.1 M Tris-HCl buffer (pH 7.4), 1 mM MgCl2, 1 mM NADPH (Nicotinamide Adenine Dinucleotide Phosphate), and 0.5 mg/ml microsomes, and the final reaction volume was 200 μL. […] inhibitor and testosterone were pre-incubated with liver microsomes from different species in a 37° C. water bath for 5 minutes. 100 μL of NADPH was added to initiate the reaction. 400 μL of stop solution was added to terminate the reaction at time points of 0 minutes, 5 minutes, 15 minutes, 30 minutes, 45 minutes, and 60 minutes. 40 μL of internal standard was added, and the mixture was vortexed for 5 minutes and centrifuged at 20,000 g and 4° C. for 5 minutes. 100 μL of the supernatant was taken and diluted with 100 μL of water for injection and analysis. The retention time of the compound and the internal standard, chromatogram acquisition, and chromatogram integration were processed by Analyst 1.6.3 software. The compound was subjected to linear regression with a weighting coefficient of 1/X^2 to calculate the concentration at each time point. The natural logarithm of the percentage remaining at each time point was linearly regressed against the incubation time to calculate the in vitro elimination rate constant k. The half-life (T1/2) and hepatic intrinsic clearance CLint(liver) of the test article were calculated according to the following formula.
(§4) hepatic microsomal clearance CLint(mic)=0.693/half-life/mg microsomal protein per mL; hepatic intrinsic clearance CLint(liver)=hepatic microsomal clearance×mg microsomal protein/gram of liver×liver weight-to-body weight ratio. The liver weight-to-body weight ratios of mice, rats, and humans were 88, 40, and 20 g/kg, respectively; the average value of mg microsomal protein/gram of liver in different species was 45.

[4] = Liver microsomal metabolism assay, rat; type: in vitro ADME
Experimental: as §3, §4

[5] = Liver microsomal metabolism assay, human; type: in vitro ADME
Experimental: as §3, §4

CC1=C(C(=O)Nc2cccc(C(F)(F)F)c2)C(c2cccc([N+](=O)[O-])c2)C2=C(CC(C)(C)CC2=O)N1 (centres unmarked) [hexahydroquinoline derivative]
IC50 (Plasmodium falciparum): 2160 nM | expression of PfAP2-O5 target genes after treatment (PfAP2-O5): downregulated | decrease of expression levels of merozoite surface structural protein family (invasion) genes (mRNA level) (PfAP2-O5; added one life cycle in advance): more than 1.5 fold | cytotoxicity to mammalian cells [1]: low cytotoxicity | cytotoxicity to mammalian cells [2]: low cytotoxicity | CLint scaled ([3]; liver microsomes, pH 7.4, mouse, hepatic intrinsic clearance CLint(liver), scaled with 45 mg protein/g liver, 88 g/kg): 176 mL/min/kg | clearance classification ([3]; mouse liver microsomes): moderate-clearance compound | k ([3]; mouse liver microsomes 0.5 mg/ml, 1 mM NADPH, 1 M inhibitor, 37° C.): 0.0222 min⁻¹ | half-life ([3]; pH 7.4, mouse liver microsomes 0.5 mg/ml, 1 mM NADPH, 37° C.): 31.2 min | CLint scaled ([4]; liver microsomes, pH 7.4, rat, hepatic intrinsic clearance CLint(liver), scaled with 45 mg protein/g liver, 40 g/kg): 178 mL/min/kg | half-life ([4]; pH 7.4, rat liver microsomes 0.5 mg/ml, 1 mM NADPH, 37° C.): 14.1 min | clearance classification ([4]; rat liver microsomes): high-clearance compound | k ([4]; rat liver microsomes 0.5 mg/ml, 1 mM NADPH, 1 M inhibitor, 37° C.): 0.0493 min⁻¹ | clearance classification ([5]; human liver microsomes): moderate-clearance compound | k ([5]; human liver microsomes 0.5 mg/ml, 1 mM NADPH, 1 M inhibitor, 37° C.): 0.0124 min⁻¹ | CLint scaled ([5]; liver microsomes, pH 7.4, human, hepatic intrinsic clearance CLint(liver), scaled with 45 mg protein/g liver, 20 g/kg): 22.3 mL/min/kg | half-life ([5]; pH 7.4, human liver microsomes 0.5 mg/ml, 1 mM NADPH, 37° C.): 55.9 min
